The values below come from article PMC3578762, “Mutational Analysis of the High-Affinity Zinc Binding Site Validates a Refined Human Dopamine Transporter Homology Model” (PLoS Computational Biology, 2013).

Structures are written as SMILES. Several values for one entry are separate records, joined by “and”; a condition that tells them apart may be missing. Equal entries are not always repeated. Where two headings read alike, the source gives them in different places.

Assay [1] concerns the target T1, DAT (D206E) (Homo sapiens, UniProt Q01959, D206E).
T1 construct: expressed in transfected cells; host or cells: HEK293 (transient, calcium phosphate)
Briefly: Zinc inhibition of [3H]MPP+ uptake in HEK293 cells transiently expressing DAT-D206E. The class given is cell-based. The following applies: [3H]MPP+ uptake inhibition, mean ± S.E. The protocol:
(§1) Wild-type human DAT was generously donated by Marc G. Caron; DAT H193K was a generous gift from Ulrik Gether. Wild-type and mutant DAT were YFP tagged at their N-terminus as described in Egana et al.. Mutagenesis was performed using the Quickchange Lightning Kit by Agilent Technologies. Primers were designed using the “quickchange primer design tool” by Agilent. Primers used were: D206K: (5′-3′): […]; D206C: (5′-3′): […].
(§2) HEK293 cells were cultured in Dulbecco's modified Eagle's medium (DMEM) with high glucose (4.5 g/liter) and L-glutamine (584 mg/liter), supplemented with 10% fetal calf serum (FCS), 100 units/ml penicillin and 100 µg/ml streptomycin. The cells were maintained at 37°C in a humidified atmosphere of 5% CO2/95% air on standard plastic culture ware. […]
(§3) Cells were seeded at 0.5×10^5 cells/ml into poly-D-lysine coated 48 well plates twenty-four hours after calcium phosphate transfection with either wild-type or mutant DAT. […] Non-specific uptake was determined in the presence of 10 µM mazindol.
(§4) Uptake data are given by mean values ± S.E, obtained from n = 6–8 experiments. Total uptake data were corrected for non-specific uptake and expressed as a percentage of 0 mM ZnCl2 for each experiment. IC50 values were calculated for each mutant by performing non-linear regression analysis using PRISM version 4.0 (GraphPad Software, Inc., San Diego, CA).

The target in assay [2] is T2, DAT (D206K) (Homo sapiens, UniProt Q01959, D206K).
T2 construct: expressed in transfected cells; host or cells: HEK293 (transient, calcium phosphate)
T2 sequence (Q01959 whole entry D206K): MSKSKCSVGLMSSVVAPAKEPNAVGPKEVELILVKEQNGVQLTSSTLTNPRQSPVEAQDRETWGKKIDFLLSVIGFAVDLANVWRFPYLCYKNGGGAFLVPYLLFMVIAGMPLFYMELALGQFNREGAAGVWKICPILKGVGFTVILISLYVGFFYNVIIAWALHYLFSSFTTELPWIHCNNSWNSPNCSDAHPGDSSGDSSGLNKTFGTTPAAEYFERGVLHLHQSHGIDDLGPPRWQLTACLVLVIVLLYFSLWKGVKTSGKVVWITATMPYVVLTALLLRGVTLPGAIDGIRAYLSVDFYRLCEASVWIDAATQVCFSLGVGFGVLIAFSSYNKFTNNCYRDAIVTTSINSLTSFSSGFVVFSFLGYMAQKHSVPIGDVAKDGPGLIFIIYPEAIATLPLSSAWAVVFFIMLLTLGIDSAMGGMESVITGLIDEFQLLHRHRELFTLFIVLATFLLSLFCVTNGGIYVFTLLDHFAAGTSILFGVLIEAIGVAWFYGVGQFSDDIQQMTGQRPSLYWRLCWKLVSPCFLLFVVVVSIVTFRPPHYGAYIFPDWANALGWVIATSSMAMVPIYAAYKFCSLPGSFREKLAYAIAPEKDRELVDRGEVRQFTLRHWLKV
Briefly: Zinc inhibition of [3H]MPP+ uptake in HEK293 cells transiently expressing DAT-D206K. Type of assay: cell-based. Conditions: for IC50: [3H]MPP+ uptake inhibition, HEK293 cells, DAT D206K, mean ± S.E. The procedure:
as §1
(§5) HEK293 cells were cultured in Dulbecco's modified Eagle's medium (DMEM) with high glucose (4.5 g/liter) and L-glutamine (584 mg/liter), supplemented with 10% fetal calf serum (FCS), 100 units/ml penicillin and 100 µg/ml streptomycin. The cells were maintained at 37°C in a humidified atmosphere of 5% CO2/95% air on standard plastic culture ware. The cells were transiently transfected with 2–10 µg of plasmid DNA as required, using the calcium phosphate precipitation method.
(§6) Cells were seeded at 0.5×10^5 cells/ml into poly-D-lysine coated 48 well plates twenty-four hours after calcium phosphate transfection with either wild-type or mutant DAT. Uptakes were performed as described previously. In brief, the cell medium was aspirated and the cells were washed once with Krebs-HEPES buffer at room temperature. The washed cells were pre-incubated with Krebs-HEPES buffer in the presence of 0–10 mM ZnCl2 for 5 min at room temperature. In the first step of the assay, this buffer was replaced with Krebs-Hepes buffer containing the appropriate ZnCl2 concentration and 0.02 µM [^3H]MPP^+. After three minutes substrate uptake was stopped by exchange of the substrate containing buffer with ice-cold Krebs-Hepes buffer. […] Non-specific uptake was determined in the presence of 10 µM mazindol.
as §4

Assay [3] deals with T3, DAT (D206C) (Homo sapiens, UniProt Q01959, D206C).
T3 construct: expressed in transfected cells; host or cells: HEK293 (transient, calcium phosphate)
T3 sequence (Q01959 whole entry D206C): as the sequence (Q01959 whole entry D206K) above, with K206C counted along it
Briefly: Zinc inhibition of [3H]MPP+ uptake in HEK293 cells transiently expressing DAT-D206C. Type of assay: cell-based. The procedure: as §1, §5, §6, §4

The target of assay [4] is T4, DAT (H193K) (Homo sapiens, UniProt Q01959, H193K).
T4 construct: expressed in transfected cells; host or cells: HEK293 (transient, calcium phosphate)
T4 sequence (Q01959 whole entry H193K): as the sequence (Q01959 whole entry D206K) above, with H193K, K206D counted along it
Put plainly: Zinc inhibition of [3H]MPP+ uptake in HEK293 cells transiently expressing DAT-H193K. Type of assay: cell-based. The following applies: [3H]MPP+ uptake inhibition, homogeneous (mono-phasic) inhibition curve, mean ± S.E., read-out: Low-affinity site: IC50 (Zn^2+). The procedure:
as §1, §2, §3, §4

Assay [5] deals with DAT. Further details: method as in PMID 9687495, PMID 8423763. Conditions: synaptosomes and heterologous expression systems; cited from earlier work.
Assay [6] deals with T5, DAT (wild-type) (Homo sapiens, UniProt Q01959).
T5 construct: expressed in transfected cells; host or cells: HEK293 (transient, calcium phosphate)
T5 sequence (Q01959 whole entry): as the sequence (Q01959 whole entry D206K) above, with K206D counted along it
Briefly: Zinc inhibition of [3H]MPP+ uptake in HEK293 cells transiently expressing wild-type DAT. The class given is cell-based. Conditions: for IC50: [3H]MPP+ uptake inhibition, HEK293 cells, bi-phasic fit, mean ± S.E. The protocol:
as §5
Cells were seeded at 0.5×10^5 cells/ml into poly-D-lysine coated 48 well plates twenty-four hours after calcium phosphate transfection with either wild-type or mutant DAT. Uptakes were performed as described previously. In brief, the cell medium was aspirated and the cells were washed once with Krebs-HEPES buffer at room temperature. The washed cells were pre-incubated with Krebs-HEPES buffer in the presence of 0–10 mM ZnCl2 for 5 min at room temperature. In the first step of the assay, this buffer was replaced with Krebs-Hepes buffer containing the appropriate ZnCl2 concentration and 0.02 µM [^3H]MPP^+. After three minutes substrate uptake was stopped by exchange of the substrate containing buffer with ice-cold Krebs-Hepes buffer. The cells were lysed in 1% SDS and transferred to scintillation vials. Scintillation cocktail was added and the vials were assayed for [^3H] content by liquid scintillation counting. Non-specific uptake was determined in the presence of 10 µM mazindol.
as §4

In assay [7] the target is T6, DAT (D206A) (Homo sapiens, UniProt Q01959, D206A).
T6 construct: expressed in transfected cells; host or cells: HEK293 (transient, calcium phosphate)
T6 sequence (Q01959 whole entry D206A): as the sequence (Q01959 whole entry D206K) above, with K206A counted along it
Put plainly: Zinc inhibition of [3H]MPP+ uptake in HEK293 cells transiently expressing DAT-D206A. Conditions: [3H]MPP+ uptake inhibition, mean ± S.E. Type of assay: cell-based. The protocol:
as §1, §2, §3, §4

Setting [8] is: read-out: High-affinity site: IC50 (Zn^2+).
Where [9] appears, read: read-out: Low-affinity site: IC50 (Zn^2+).

T1 sequence (Q01959 whole entry D206E): as the sequence (Q01959 whole entry D206K) above, with K206E counted along it

Turning to `[Zn+2]` [zinc], the IC50 in assay [1] (setting [8]) is 1.22 ± 0.3 µM; in assay [1] (setting [9]), 857 ± 76 µM; in assay [2] (setting [8]), 2.54 ± 0.8 µM; in assay [2] (setting [9]), 682 ± 100 µM; in assay [3] ([3H]MPP+ uptake inhibition, HEK293 cells, DAT D206C, mean ± S.E., read-out: High-affinity site: IC50 (Zn^2+)) it was 6.81 ± 1.4 µM; in assay [4] it was 102 ± 8 µM. The IC50 in assay [6] (setting [8]) was 1 µM and 0.91 µM; in assay [6] (setting [9]) it was 798 ± 84 µM; in assay [7] (setting [8]) it was 0.79 ± 0.1 µM; in assay [7] (setting [9]), 219 ± 14 µM. The “Reduction of inhibitory potency of zinc on the high-affinity component versus wild-type” value in assay [2] (DAT-D206K versus wild-type DAT) is reported as “approximately three fold”. Also, the “Inhibition of transport upon saturation of the high affinity site” value in assay [3] (DAT-D206C, [3H]MPP+ uptake, HEK293 cells) is “almost complete inhibition of transport”. In assay [3] (DAT-D206C, at 250 µM zinc), the “Occupancy of the high affinity site predicted” value is reported as 99%. Besides, the “IC50 of inhibition of dopamine re-uptake” value in assay [5] is recorded as “low µM range”. The “Reduction of the transport rate of DAT upon zinc binding” value in assay [6] (zinc bound to high-affinity site) was approximately 50%.
